Measurements published in ChEMBL document CHEMBL3507680, “University of Dundee, Gates Library screen for HepG2 cell viability”.

Assay: Human HepG2 cell viability assay in 384 well format
Type: toxicity, cell-based
Set-up: dose 125 nL, time 70.5 hour; cytotoxicity at 70.5 h: concentration not given beside the values
Settings: HepG2 cells, read-out: Inhibition

SMILES	cytotoxicity at 70.5 h
CC(=O)N1CC2(CCCC2)c2ccccc21	-3.2%
COc1ccc2nc(C3CC3)cc(C(=O)NCC(=O)N(C)C)c2c1	-2.45%
Cc1nc(C2CCN(S(=O)(=O)c3ccc4c(c3)CCC4)CC2)n[nH]1	-2.6%
Cn1ccc(CNC(=O)Nc2ccc(S(=O)(=O)C(F)F)cc2)c1	-2.09%
CC(=O)NC(Cc1c[nH]c2cc(F)ccc12)C(=O)Nc1nonc1C (stereo not drawn)	22%
CC(C#N)CNC(=O)Nc1ccc(-c2cc[nH]n2)cc1 (stereo not drawn)	-1.44%
COc1ccc2nc(C3CC3)cc(C(=O)NCCc3nnc[nH]3)c2c1	-3.73%
CC(C)c1cc(C(=O)N(c2ccc(F)cn2)C2CCOCC2)on1	1.54%
CC(C#N)CNC(=O)Nc1ccc(-c2ccc[nH]2)cc1 (stereo not drawn)	-0.22%
CS(=O)(=O)c1ccc(NCc2ccccc2)cn1	-2.92%
CC(C)(Oc1ccc(F)cc1)C(=O)NCc1ccco1	-2.11%
CC(NC(=O)N1CCC2(C1)OCCO2)c1ccc(F)cc1Cl (stereo not drawn)	4.97%
Cc1nc(COc2nc(C(C)C)no2)cs1	-5.35%
O=C(c1cccc(O)c1)N1CCN(Cc2nnc(C3CCC3)o2)CC1	23.6%
Cc1nc(C)n(CC2CCCCN2c2ccnc(-c3ccccc3)n2)n1 (stereo not drawn)	5.38%
CN(C)CCN(C)S(=O)(=O)CC1CCOCC1	-7.41%
CC(OCC1CC1)C(=O)NCc1cccc(CN2CCCC2=O)c1 (stereo not drawn)	1.05%
O=C(COC1CCCCC1)Nc1ccn(Cc2ccccn2)n1	-5.54%
CC(C)(C)c1ccc2c(c1)CCN2C(=O)c1ccc(=O)[nH]n1	-5.53%
CC(C)(C)n1c(NC(=O)CNC(=O)NC2CC2)nc2ccccc21	1.24%
CN(CCOc1ccccc1F)S(=O)(=O)CC1CCOCC1	-8.77%
NC(=O)CCCNC(=O)CCc1cc(Br)cs1	-5.18%
O=C(C1CCOc2ccccc21)N1CCOc2cccc(F)c21 (stereo not drawn)	4.13%
CC(=O)N1CCN(c2ccccc2CNc2cc(F)cc(F)c2)CC1	13.8%

SMILES	cytotoxicity at 70.5 h
O=S(=O)(c1ccc2c(c1)CCC2)N1CCCC(Cn2cncn2)C1 (stereo not drawn)	0.224%
O=C(NCc1ccc(C(=O)O)o1)c1ccc(F)cc1	0.996%
O=S(=O)(c1cccc(Cl)c1)N1CCCC(Cn2cncn2)C1 (stereo not drawn)	-4.36%
Cn1nc2c(cc1=O)CN(CC1CCCCO1)CC2 (stereo not drawn)	-2.64%
CCOC(C)C(=O)NCc1cccc(CN2CCCCCC2)c1 (stereo not drawn)	-2.85%
O=C(C1CCCC1)N1CCOc2cccc(F)c21	-7.17%
COc1ccc(NCc2ccccc2N2CCN(C(C)=O)CC2)cn1	0.712%
CC(=O)N1CCN(c2ccccc2CNc2ccc(C)cn2)CC1	-3.33%
CCN(Cc1c(F)cccc1F)C(=O)c1ccncc1O	-7.76%
CCC(C(=O)NCCc1ccn(-c2ccccc2)n1)N1CCCC1=O (stereo not drawn)	-5.95%
COCCCS(=O)(=O)N1CCN(Cc2cccn2C)CC1	43.4%
CCn1cnnc1CNC(=O)c1ccc(Br)cc1F	22.3%
N#Cc1ncn(CC(=O)N2CCCC2c2cccs2)n1 (stereo not drawn)	22.9%
CN(CC(=O)NC(C)(C)C)Cc1cccc2c1OCCO2	33.4%
CCC(NC(=O)NC1CCN(S(C)(=O)=O)CC1)c1cccs1 (stereo not drawn)	-11.5%
O=C(C1CC1)N1CCCCCC1C1CCN(c2ncccn2)CC1 (stereo not drawn)	-9.64%
NC(=O)N1CCCCCC1C1CCN(c2nccc(C(F)(F)F)n2)CC1 (stereo not drawn)	-13.9%
CCc1nnc2n1CCN(c1nc(C)cc(N(C)C)n1)C2	-13.4%
O=C(COc1ccc(Cl)cc1)NCc1nncn1C1CC1	-14.1%
CCn1cnnc1CCNC(=O)c1ccc(Br)cc1F	-4.19%
COCc1c(Br)cccc1NC(=O)N(C)CCO	-12.1%
CS(=O)(=O)NCCN1CCSCC1c1ccc(Cl)cc1 (stereo not drawn)	-2.66%
NC(=O)N1CCCC(C(=O)NCCOc2ccc(F)cc2F)C1 (stereo not drawn)	0.645%
Cc1noc(C)c1NC(=O)NC1CCN(C(=O)OC(C)(C)C)CC1	-9.26%

SMILES	cytotoxicity at 70.5 h
NC(=O)C1CCCN1CCCc1ccc(Cl)cc1 (stereo not drawn)	-5.15%
O=C(NCC1(O)CCOCC1)c1ccn(-c2ccccc2F)n1	-9.56%
O=C(NCC1(O)CCSC1)c1ccn(-c2ccccc2F)n1 (stereo not drawn)	-15.6%
CNC(=O)c1cccc(NCC(=O)Nc2cc(C)nn2C)c1C	-14%
CCNC(=O)N1CCC(=Cc2ccccc2)CC1	1.05%
Cc1oc(CNC(=O)Cc2cccc(OC(F)F)c2)cc1C(=O)O	-7.31%
C/C=C(/C)C(=O)NS(=O)(=O)c1ccc(C(F)(F)F)cc1	0.976%
Cc1ccc(CNC(=O)NCC(=O)N2CCCC2)c(N2CCCC2)c1	4.74%
O=C(OCc1ccccc1)C1CCCN1Cc1nc(C2CC2)no1 (stereo not drawn)	-17.4%
Cc1noc(C)c1C(C)NC(=O)N1CCN(c2cccs2)CC1 (stereo not drawn)	6.76%
O=C(CN1CCN(c2ncnc3cccc(F)c23)CC1)N1CCCC1	-9.51%
CCc1noc(CN2CCCC2C(=O)OCc2ccccc2)n1 (stereo not drawn)	-16.5%
CC(O)(CNc1ccc(Cl)c(C#N)n1)c1ccsc1 (stereo not drawn)	10.6%
Cn1cc(C(C)(O)CNc2ccc(Cl)c(C#N)n2)cn1 (stereo not drawn)	5.37%
CC(C)CCC(=O)N1CCN(C(C)c2nnc(CC(C)C)o2)CC1 (stereo not drawn)	23.3%
O=C(c1sccc1-n1cnnn1)N1CCCCC1	-6.17%
CC(Nc1ccc(Br)cc1)c1nc(C2CC2)no1 (stereo not drawn)	-1.22%
CC1CCN(C(=O)c2sccc2-n2cnnn2)CC1	-4.67%
CC(C(=O)NCc1ccco1)N1CCN(Cc2nccn2C)CC1 (stereo not drawn)	-5.54%
O=C1CCN(C(=O)NCC(c2ccccc2)c2ccccc2)CCN1	-2.48%
CCC(=O)NCC(=O)NC(C)c1sc(-c2ccccc2F)nc1C (stereo not drawn)	10.3%
CCC(=O)NCC1(O)CCC(C(C)(C)C)CC1 (stereo not drawn)	-4.59%
CCC(=O)NCC(=O)NCC1(O)CCC(C(C)(C)C)CC1 (stereo not drawn)	-7.33%
CC(C)n1cnnc1CNC(=O)c1cnn(Cc2ccccc2)c1	-2.61%

SMILES	cytotoxicity at 70.5 h
Cc1cccc(CNc2ccc(C(=O)N3CCC(CO)CC3)cc2)c1	-5.19%
CCNC(=O)CCC(=O)NCC1(O)CCC(C(C)(C)C)CC1 (stereo not drawn)	-2.55%
CCN1CC(COC(=O)c2cccc(Br)c2)CC1=O (stereo not drawn)	-7.36%
O=C1CC2(CCSC2)C(=O)N1Cc1ncc(-c2cccc(F)c2)o1 (stereo not drawn)	-1.19%
CC(C)NC(=O)N1CCC[C@H]1C(=O)NCCCc1cccc(F)c1	-5.95%
O=C1CC2(CCSC2)C(=O)N1Cc1coc(-c2ccc(F)cc2)n1 (stereo not drawn)	-3.42%
CCN1CC(COC(=O)c2ccc(N(C)C)cc2F)CC1=O (stereo not drawn)	-3.33%
N#Cc1ccc(CN2CCN(Cc3ccncc3Cl)CC2=O)cc1	2.38%
CC(C)COC(=O)N1CCCN(C(C)c2nnc(CC(C)C)o2)CC1 (stereo not drawn)	-3.09%
CCN1CC(COC(=O)c2cc(Br)ccc2F)CC1=O (stereo not drawn)	0.441%
CC1(C)CN(C(CNS(N)(=O)=O)c2ccc(Cl)cc2)CCO1 (stereo not drawn)	-3.76%
CC(=O)N1CCN(C(C)c2nnc(CC(C)C)o2)CC1 (stereo not drawn)	-4.1%
NC(=O)CC1CCCN(C(=O)NCC2(c3cccs3)CCCC2)C1 (stereo not drawn)	-0.84%
N#Cc1ccc(CN2CCN(c3ccncc3Cl)CC2=O)cc1	-4.03%
Cc1noc(C(C)Nc2ccc3c(c2)CCC3)n1 (stereo not drawn)	8.72%
Cc1cc(CN(C)CC2CC(C3CCCCC3)=NO2)no1 (stereo not drawn)	0.975%
CCOc1ccc2c(c1)C=C(C(=O)NC(C)Cn1cccn1)CO2 (stereo not drawn)	-5.74%
CCCOc1ccc2c(c1)OCC(C(=O)NC(C)Cn1cccn1)=C2 (stereo not drawn)	1.23%
CCCOc1ccc2c(c1)OCC(C(=O)NC(C)Cn1ccnc1)=C2 (stereo not drawn)	-6.31%
Cc1cc(C)nc(N2CCc3ccc(OC(F)F)cc3C2)n1	-2.64%
CS(=O)(=O)c1ccc2c(c1)N(C(=O)Cc1ccc(F)cc1)CCC2	14.3%
CS(=O)(=O)c1ccc2c(c1)N(C(=O)c1cccc(F)c1)CCC2	-4.57%
CCc1ccc(O)c(C(=O)N2CCN(CC(=O)N(C)C)CC2)c1	-1.61%
CS(=O)(=O)c1cccc2c1CCCN2C(=O)Cc1cccc(F)c1	-2.8%

SMILES	cytotoxicity at 70.5 h
COc1ccc(Oc2ncccc2NC(=O)N2CCOCC2)cc1	-6.42%
CC(C)C(NC(=O)Nc1cnn(CC(N)=O)c1)c1ccc(Cl)cc1 (stereo not drawn)	-1.5%
COC(=O)C(CNC(=O)Nc1nncs1)Cc1ccc(O)cc1 (stereo not drawn)	-2.82%
CC(Nc1nc2c(cnn2C)c(=O)[nH]1)c1ccc(F)cc1 (stereo not drawn)	-2.55%
CC(Nc1nc2c(cnn2C)c(=O)[nH]1)c1ccc2c(c1)CCCC2 (stereo not drawn)	-3.73%
CC(C)Sc1ccc(C(C)Nc2nc3c(cnn3C)c(=O)[nH]2)cc1 (stereo not drawn)	-3.27%
Cn1nc2c(cc1=O)CN(Cc1nc(-c3ccoc3)no1)CC2	-2.1%
Cc1cc(CN(C)C(=O)NC(C)Cc2ccc(O)cc2)no1 (stereo not drawn)	0.825%
CC(C(=O)Nc1cnn(CC(N)=O)c1)c1ccc(Cl)s1 (stereo not drawn)	-4.91%
Cc1ccc(CN(CC(=O)NCC2CCOC2)c2ccc(F)cc2)o1 (stereo not drawn)	-3.8%
O=C(Nc1ccc(OC(F)F)cc1)N1CCC(c2nnc[nH]2)CC1	-2.12%
CCOc1cc(NC(=O)N2CCC(c3nnc[nH]3)CC2)ccc1C	-0.547%
Cc1cc(CN(C)CC2CCCCC2)no1	-2%
CCN(Cc1ccccc1C)S(C)(=O)=O	-3.77%
Cc1ccccc1CCCN(C)S(C)(=O)=O	-3.41%
Cc1ccccc1CCCN(Cc1ccccn1)S(C)(=O)=O	-0.248%
CC(C)n1nc2c(cc1=O)CN(Cc1nc(-c3ccoc3)no1)CC2	17%
CCc1ccc(O)c(C(=O)N2CCCN(CC(=O)N(CC)CC)CC2)c1	-0.346%
CCCn1nc2c(cc1=O)CN(Cc1nc(-c3ccoc3)no1)CC2	-2.82%
Cc1cc(CSCc2ccccn2)on1	-1.54%
CCc1noc(C(C)N(C)Cc2ccc(OC)c(OC)c2)n1 (stereo not drawn)	1.83%
CC1(C)CN(C(CNC2=NCCN2)c2ccc(Cl)cc2)CCO1 (stereo not drawn)	-5.1%
